Experimental data reported in patent EP0960338B1, “DIAGNOSTIC METHODS AND COMPOSITIONS BASED ON THE DISTRIBUTION OF RAD51” (Yale University, priority 1997, dated 1998).
Values joined by “and” are separate entries in the source; they are usually repeats but may differ in a detail not shown here. Identical values can stand only once.

Key:
[1] = tested on: LNL8 fibroblasts; assay: Immunofluorescent staining of Rad51 foci in nuclei and micronuclei; assay type: cell-based, human
Experimental: (§1) Cell Culture. The sources of the cell lines were as follows. Rat TGR-1 cells, J. Sedivy. Brown University; mouse 3T3-Swiss cells, ATCC; human 293 kidney cells, ATCC; human teratoma cells, B. King, Yale University; human LNL8 fibroblasts, S. Meyn, Yale: human XPA and XPF fibroblasts, P Glazer, Yale.
(§2) Monolayer cultures were grown in D-MEM medium supplemented with 10% fetal bovine serum and antibiotics.
(§3) Immunofluorescent Staining.
(§4) Digital Imaging Microscopy.

[2] = tested on: TGR-1 cells; assay: as above; assay type: cell-based, rat
Experimental: as §1, §2, §3, §4

[3] = tested on: TGR-1 cells
[4] = tested on: TGR-1 cells; assay: Apoptosis by fluorescence in situ end labeling (FISEL); assay type: cell-based, rat; conditions: for Percentage of Apoptotic Cells: FISEL+
Experimental: Fluorescence In Situ End Labeling (FISEL). FISEL detects cell death (apoptosis) in situ by quantitating DNA strand breaks in individual nuclei. It uses terminal transferase (TdT) to label the 3'-ends in fragmented genomic DNA with biotinylated nucleotide. 100 µl of reaction mix contain 1 µl (25 Units) TdT (Boehringer Mannheim), 20 µl 5xTdT buffer (supplied with the enyzme), 1 µl 0.5 mM biotin-II-dUTP, 3 µl 0.5 mM dTTP, and 75 µl ddH2O. Cytological preprations are incubated at 37°C for 1 hr with this reaction mix. Washing the slides for 3x5 min in PBS is sufficient to terminate the reaction. The incorporated biotin-dUTP is detected with rhodarnine-conjugated avidin.
Another more classical way for inducing apoptosis in vitro is the exposure of TGR-1 cells to the topoisomerase II inhibitor etoposide.

[5] = LNL8, 10^-5 M 5-aza-dC added 24 hrs before cell harvest
[6] = TGR-1, 10^-5 M 5-aza-dC added 24 hrs before cell harvest
[7] = TGR-1, 2 hrs in medium containing etoposide
[8] = TGR-1, 5 hrs in medium containing etoposide
[9] = TGR-1, 12 hrs in medium containing etoposide
[10] = TGR-1, 18 hrs in medium containing etoposide
[11] = TGR-1, 24 hrs in medium containing etoposide
[12] = TGR-1, 36 hrs in medium containing etoposide

## Nc1ncn([C@H]2C[C@H](O)[C@@H](CO)O2)c(=O)n1 [5-aza-dC, 5-azadeoxycytidine]
[1]; [5]
  Percentage of Cells with Type I Foci in Micronuclei: 1%
  Percentage of Cells with Type I Foci in Nuclei: 3%
  Percentage of Cells with Type II Foci in Micronuclei: 5%
  Percentage of Cells with Type II Foci in Nuceli: 2%
  Percentage of Cells without Foci: 89%
[1]; human LNL8 fibroblast cultures, non-lethal doses of 5-aza-dC, range stated jointly with TGR-1
  cells displaying MN with focally concentrated Rad51 protein: 5-10%
[2]; Rat TGR-1 cultures, non-lethal doses of 5-aza-dC, range stated jointly with LNL8
  cells displaying MN with focally concentrated Rad51 protein: 5-10%
[2]; [6]
  Percentage of Cells with Type I Foci in Micronuclei: 4%
  Percentage of Cells with Type I Foci in Nuclei: 5%
  Percentage of Cells with Type II Foci in Micronuclei: 4%
  Percentage of Cells with Type II Foci in Nuceli: 1%
  Percentage of Cells without Foci: 86%

## CN[C@H]1CCc2cc(OC)c(OC)c(OC)c2-c2ccc(OC)c(=O)cc21 [Colcemid, colcemid]
[3]
  Percentage of Cells Showing Rad 51+/ FISEL+: 0% and 1% and 6% and 4%
  Percentage of Cells Showing Rad51-/ FISEL-: 85% and 54% and 45% and 43%
  induced MN containing very brightly fluorescing Rad51 foci: over 30%

## COc1cc([C@@H]2c3cc4c(cc3[C@@H](O[C@@H]3O[C@@H]5CO[C@@H](C)O[C@H]5[C@H](O)[C@H]3O)[C@H]3COC(=O)[C@H]23)OCO4)cc(OC)c1O [etoposide]
[4]; 12 hrs in medium containing etoposide
  Percentage of Apoptotic Cells: 17%
[4]; 18 hrs in medium containing etoposide
  Percentage of Apoptotic Cells: 24%
[4]; 24 hrs in medium containing etoposide
  Percentage of Apoptotic Cells: 33%
[4]; 36 hrs after adding etoposide to the culture medium
  cells showing genome fragmentation, stained FISEL-positively: half
[4]; 36 hrs in medium containing etoposide
  Percentage of Apoptotic Cells: 47%
[2]; [7]
  Percentage of Cells with Type I Foci in Micronuclei: 1%
  Percentage of Cells with Type I Foci in Nuclei: 4%
  Percentage of Cells with Type II Foci in Micronuclei: 2%
  Percentage of Cells with Type II Foci in Nuclei: 1%
  Percentage of Cells without Foci: 92%
[2]; [8]
  Percentage of Cells with Type I Foci in Micronuclei: 2%
  Percentage of Cells with Type I Foci in Nuclei: 3%
  Percentage of Cells with Type II Foci in Micronuclei: 2%
  Percentage of Cells with Type II Foci in Nuclei: 1%
  Percentage of Cells without Foci: 92%
[2]; [9]
  Percentage of Cells with Type I Foci in Micronuclei: 2%
  Percentage of Cells with Type I Foci in Nuclei: 8%
  Percentage of Cells with Type II Foci in Micronuclei: 2%
  Percentage of Cells with Type II Foci in Nuclei: 1%
  Percentage of Cells without Foci: 87%
[2]; [10]
  Percentage of Cells with Type I Foci in Micronuclei: 8%
  Percentage of Cells with Type I Foci in Nuclei: 3%
  Percentage of Cells with Type II Foci in Micronuclei: 9%
  Percentage of Cells with Type II Foci in Nuclei: 1%
  Percentage of Cells without Foci: 79%
[2]; [11]
  Percentage of Cells with Type I Foci in Micronuclei: 2%
  Percentage of Cells with Type I Foci in Nuclei: 2%
  Percentage of Cells with Type II Foci in Micronuclei: 8%
  Percentage of Cells with Type II Foci in Nuclei: 6%
  Percentage of Cells without Foci: 82%
[2]; [12]
  Percentage of Cells with Type I Foci in Micronuclei: 5%
  Percentage of Cells with Type I Foci in Nuclei: 2%
  Percentage of Cells with Type II Foci in Micronuclei: 9%
  Percentage of Cells with Type II Foci in Nuclei: 1%
  Percentage of Cells without Foci: 83%
